The record followed here is ChEMBL document CHEMBL5576079, “Discovery of a potent orally available pyrazolopyridone derivative as a novel selective bromodomain and extra-terminal domain (BET)-first bromodomain (BD1) inhibitor” (Bioorg Med Chem Lett, 2024).

Each structure is given as a SMILES string. Calls of active or inactive are those of the source. No cut-off for these calls is given here.

The nature of series [1]: Drug concentration in LPS induced mouse plasma at 10 mg/kg measured after 2 hrs. Format: ADME, organism-based.
Series [2] is described as follows: Drug concentration in LPS induced mouse plasma at 100 mg/kg measured after 2 hrs. It counts as ADME, organism-based.
A further series relates to Monocyte. The series can be described thus: Inhibition of LPS-induced MCP-1 production in mouse Monocyte.
Series [3] has as its system Mus musculus. The series can be described thus: Anti-inflammatory activity in endotoxemia mouse model assessed as suppression of LPS-induced serum MCP-1 level at 10 mg/kg, po preincubated for 30 mins followed by LPS stimulation and measured after 90 mins. Format: functional, organism-based. The note with it: time 120.0 min.
Series [4] deals with Mus musculus. The series can be described thus: Anti-inflammatory activity in endotoxemia mouse model assessed as suppression of LPS-induced serum IL-6 level at 10 mg/kg, po preincubated for 30 mins followed by LPS stimulation and measured after 90 mins. Format: functional, organism-based. The note with it: time 120.0 min.

Broadly, the IC50 is the concentration needed to halve the response being measured. On to `Cc1csc(-c2cn(C)c(=O)c3cn(CC4CC(C(=O)NC5CCCCC5)CCN(C)C4)nc23)n1` (stereo unspecified), for which the concentration at 2 h in series [1] came to 39.1 ng/mL; in series [2], 707 ng/mL. This compound showed an IC50 in the series with Monocyte of 1 nM. Moreover, the result in the series with Mus musculus [3] and in the series with Mus musculus [4] was Active.
`Cc1sc2c(c1C)C(c1ccc(Cl)cc1)=N[C@@H](CC(=O)OC(C)(C)C)c1nnc(C)n1-2`: inhibition in the series on Monocyte was half-maximal at 2 nM (IC50).
